≈ marks a conversion by molar mass, not a printed value. Like-named read-outs stand apart in the source and are kept apart here.

One data set is described as follows: Solubility pH 7.4. Type of data set: physicochemical. To be noted: aqueous buffer.
Data set [1] concerns Asexual parasites of P. falciparum strain 3D7. Kind of data set: In vitro drug activity on asexual parasites (SYBR Green assay). The data set is classed as cell-based. As to conditions: Plasmodium falciparum, P. falciparum 3D7 asexual stage, 72 h, read-out: Asexual EC50. The procedure: Cell culture. Asexual parasites of P. falciparum strain 3D7 were cultured as described previously [Trager W, et al., Journal of Parasitology 2005, 91: 484-486]. Stage III-V gametocytes were selected and enriched with 3-day treatment with 50 mM N-acetylglucosamine (NAG) and the following Percoll density gradient centrifugation after gametocyte production [Tanaka T Q, et al., Molecular and Biochemical Parasitology, 2011, 177: 160-163]. Gametocytes of HB3 and Dd2 strains were produced and then set up for assay in a similar process. HepG2 cells (ATCC, cat. no. 77400) were cultured in 175-cm^2 tissue culture flasks with 30 ml growth medium at 37° C. in a 5% CO2 humidified atmosphere. Growth medium was made with Dulbecco's Modified Eagle Medium with 10% fetal bovine serum (FBS). Growth medium was replaced every other day and cells were passed at 75% confluence.
Asexual parasites of P. falciparum strain 3D7 were cultured as described previously (Trager, W. et al., J. Parasitol. 2005, 91(3): 484-486). Drug activity on asexual stage parasites was tested using a SYBR Green assay as described previously (Eastman, R. T. et al., Antimicrob. Agents Chemother. 2013, 57(1): 425-435; Smilkstein, M. et al., Antimicrob. Agents Chemother. 2004, 48(5): 1803-1806). Briefly, parasites were diluted to 0.5% parasitemia in complete culture medium with 2% hematocrit and drugs diluted in DMSO (<0.5%) and were loaded into a 96-well plate (200 μl/well). No drug and RBC alone wells were included as positive and background controls, respectively, and each testing condition was examined in duplicated. After 72 h incubation under the standard culture condition and a freeze-thaw lysis step at −80° C. and room temperature, 100 μl/well of lysis buffer containing SYBR Green I was added to the parasite culture and incubated for 30 min at room temperature. The fluorescence of each well was measured at 520 nm following excitation at 490 nm using a FLUOstar Optima™ microplate reader (BMG Labtech).
Compounds were screened against gametocytes and asexual parasites as described in Examples 1 and 2.

A short description of data set [2]: Microsomal stability (rat). Type of data set: in vitro ADME. As to conditions: rat microsomes.
Where [3] appears, read: Table 2, read-out: Microsomal Stability (rat) T1/2.
The mark [4] stands for this setting: Table 3, read-out: Microsomal Stability (rat) T1/2.

For `N#Cc1cccc(-n2c(=N)ccc3cnc4ccc(-c5ccc(Cl)cc5)cc4c32)c1`, the solubility – broadly, the concentration that dissolves in the medium under given conditions – in “Solubility pH 7.4” (Table 2) came to 25.9 µg/mL (≈ 63.7 µM). The EC50 (as a rule, the concentration that produces a half-maximal response) in data set [1] (Table 2) was 186 nM. In addition, the half-life in data set [2] (setting [3]) is > 30 min.
Taken in the same sequence, the figures for `N=c1ccc2cnc3ccc(-c4ccc(Cl)cc4)cc3c2n1-c1cccc(C(F)(F)F)c1` were 11.5 µg/mL (≈ 25.6 µM), 213 nM and > 30 min.
The corresponding values for `Cc1ccc([S+](=O)([O-])/N=c2\ccc3cnc4ccc(-c5ccc(Cl)cc5)cc4c3n2-c2ccc(C(=O)NC3CC3)cc2)cc1` are < 1 µg/mL, 59 nM and 11.5 min.
`N=c1ccc2cnc3ccc(-c4ccc(Cl)cc4)cc3c2n1-c1ccc(C(=O)NC2CC2)cc1`: the solubility in “Solubility pH 7.4” (Table 2) was > 69 µg/mL. The EC50 in data set [1] (Table 2) turned out to be 85.7 nM. Also, the half-life in data set [2] (setting [3]) was > 30 min.
With `Cc1ncncc1-n1c(=N)n(C)c2cnc3ccc(-c4ccc(N)nc4)cc3c21`, the solubility in the data set “Solubility pH 7.4” (Table 3) is > 38 µg/mL. Besides, the EC50 in data set [1] (Table 3) amounted to 164 nM. Moreover, the half-life in data set [2] (setting [4]) was > 30 min.
Consider `Cn1/c(=N\c2cncnc2)n(-c2cncnc2)c2c3cc(-c4cccc(F)c4)ccc3ncc21`, for which the EC50 in data set [1] (Table 3) was determined as 193 nM.
Take `Cn1nccc1-c1ccc2ncc3c(c2c1)n(-c1cncnc1)c(=N)n3C`: the solubility in “Solubility pH 7.4” (Table 3) stood at 36.3 µg/mL (≈ 102 µM). Also, the EC50 in data set [1] (Table 3) was found to be 570 nM.
The corresponding values for `COc1cc(-c2ccc3ncc4c(c3c2)n(-c2cncnc2C)c(=N)n4C)ccc1Cl` are 1.3 µg/mL (≈ 3.02 µM) and 50.8 nM.
The corresponding values for `COc1ccc(-c2ccc3ncc4c(c3c2)n(-c2cncnc2C)c(=N)n4C)cc1F` are > 61 µg/mL and 229 nM.
On to `COc1cc(-c2ccc3ncc4c(c3c2)n(-c2cncnc2C)c(=N)n4C)ccc1F`, for which, in the data set “Solubility pH 7.4” (Table 3), the solubility is < 1 µg/mL. Moreover, the EC50 in data set [1] (Table 3) amounted to 52.5 nM.
The compound `Cc1ncncc1-n1c(=N)n(C)c2cnc3ccc(-c4ccc(Cl)c(C(F)(F)F)c4)cc3c21` returned a solubility in the data set “Solubility pH 7.4” (Table 3) of 10.6 µg/mL (≈ 22.6 µM). Moreover, the EC50 in data set [1] (Table 3) came to 160 nM. Besides, in data set [2] (setting [4]), the half-life was > 30 min.
For `Cn1c(=N)n(-c2cncnc2)c2c3cc(-c4ccc(Cl)c(C#N)c4)ccc3ncc21`, the EC50 in data set [1] (Table 3) stood at 136 nM.
As to `Cc1ncncc1-n1c(=N)n(C)c2cnc3ccc(-c4ccc(Cl)c(OC(F)(F)F)c4)cc3c21`, in the data set “Solubility pH 7.4” (Table 3), the concentration in solution (solubility) came to 16 µg/mL (≈ 33 µM). Moreover, the EC50 in data set [1] (Table 3) was 158 nM. Besides, the half-life in data set [2] (setting [4]) is > 30 min.
The corresponding values for `Cn1c(=N)n(-c2cncnc2)c2c3cc(-c4ccc(Cl)c(OC(F)(F)F)c4)ccc3ncc21` are < 1 µg/mL, 315 nM and > 30 min.
Regarding `COc1ccc(-c2ccc3ncc4c(c3c2)n(-c2cncnc2C)c(=N)n4C)cc1OC`, the EC50 in data set [1] (Table 3) was 25.8 nM. In data set [2] (setting [4]), the half-life was > 30 min.
On to `Cn1c(=N)n(-c2ccnc(N)n2)c2c3cc(-c4ccc(Cl)cc4)ccc3ncc21`, for which the solubility in “Solubility pH 7.4” (Table 3) is 3.4 µg/mL (≈ 8.46 µM). Further, the EC50 in data set [1] (Table 3) was 140 nM. For the same compound, in data set [2] (setting [4]), the half-life was > 30 min.
Taken in the same sequence, the figures for `Cn1c(=N)n(-c2ccnc(N)n2)c2c3cc(-c4cccc(F)c4)ccc3ncc21` were 20.9 µg/mL (≈ 54.2 µM), 523 nM and > 30 min.
Turning to `Cn1c(=N)n(-c2nccc(C(F)(F)F)n2)c2c3cc(-c4ccc(Cl)cc4)ccc3ncc21`, the solubility in the data set “Solubility pH 7.4” (Table 3) was < 1 µg/mL. Besides, the EC50 in data set [1] (Table 3) is 450 nM.
The corresponding values for `Cn1c(=N)n(-c2nccc(C(F)(F)F)n2)c2c3cc(-c4cccc(F)c4)ccc3ncc21` are < 1 µg/mL and 202 nM.
The corresponding values for `COc1ccnc(-n2c(=N)n(C)c3cnc4ccc(-c5ccc(Cl)cc5)cc4c32)n1` are < 1 µg/mL and 2110 nM.
On to `Cn1c(=N)n(-c2nccc(O)n2)c2c3cc(-c4ccc(Cl)cc4)ccc3ncc21`, for which the solubility in the data set “Solubility pH 7.4” (Table 3) was < 1 µg/mL. Also, the EC50 in data set [1] (Table 3) was 43100 nM. Moreover, the half-life in data set [2] (setting [4]) is > 30 min.
With `COc1ccnc(-n2c(=N)n(C)c3cnc4ccc(-c5cccc(F)c5)cc4c32)n1`, the concentration in solution in “Solubility pH 7.4” (Table 3) (solubility) came to 6.5 µg/mL (≈ 16.2 µM). In data set [1] (Table 3), the concentration for a half-maximal effect (EC50) is 1310 nM.
As to `Cn1c(=N)n(-c2nccc(O)n2)c2c3cc(-c4cccc(F)c4)ccc3ncc21`, the solubility in the data set “Solubility pH 7.4” (Table 3) was < 1 µg/mL. For the same compound, the EC50 in data set [1] (Table 3) is 18800 nM. Besides, the half-life in data set [2] (setting [4]) is > 30 min.
With `Cn1c(=N)n(-c2nccc(N)n2)c2c3cc(-c4ccc(Cl)cc4)ccc3ncc21`, in “Solubility pH 7.4” (Table 3), the solubility was < 1 µg/mL. Besides, in data set [1] (Table 3), the EC50 is 1860 nM. For the same compound, the half-life in data set [2] (setting [4]) is > 30 min.
In “Solubility pH 7.4” (Table 3), `Cn1c(=N)n(-c2nccc(N)n2)c2c3cc(-c4cccc(F)c4)ccc3ncc21` yielded a solubility of 5.2 µg/mL (≈ 13.5 µM). Further, in data set [1] (Table 3), the concentration giving a half-maximal response (EC50) was determined as 1570 nM. Besides, the half-life in data set [2] (setting [4]) was > 30 min.
On to `Cn1c(=N)n(-c2cccc(CC#N)c2)c2c3cc(-c4ccc(Cl)cc4)ccc3ncc21` [Compound 73, 2-(3-(8-(4-chlorophenyl)-2-imino-3-methyl-2,3-dihydro-1H-imidazo[4,5-c]quinolin-1-yl)phenyl)acetonitrile], for which, in data set [1] (Table 1), the EC50 came to 118 nM.
Still for that read-out and setting: under `Cn1c(=N)n(-c2ccnc(C#N)c2)c2c3cc(-c4ccc(Cl)cc4)ccc3ncc21` [Compound 90, 4-(8-(4-chlorophenyl)-2-imino-3-methyl-2,3-dihydro-1H-imidazo[4,5-c]quinolin-1-yl)picolinonitrile] stands 224 nM; under `Cc1cc(N2CCCC2)c(C#N)cc1-n1c(=N)n(C)c2cnc3ccc(-c4ccc(Cl)cc4)cc3c21` [Compound 111, 5-(8-(4-chlorophenyl)-2-imino-3-methyl-2,3-dihydro-1H-imidazo[4,5-c]quinolin-1-yl)-4-methyl-2-(pyrrolidin-1-yl)benzonitrile], 801 nM.
Consider `Cc1cc(N2CCOC(C)C2)c(C#N)cc1-n1c(=N)n(C)c2cnc3ccc(-c4ccc(Cl)cc4)cc3c21` (stereo not shown) [Compound 119, 5-(8-(4-chlorophenyl)-2-imino-3-methyl-2,3-dihydro-1H-imidazo[4,5-c]quinolin-1-yl)-4-methyl-2-(2-methylmorpholino)benzonitrile], for which, in data set [1] (Table 1), the EC50 worked out at 352 nM.
On the same count and under the same terms, under `Cc1cc(N2C[C@@H]3CCCN[C@@H]3C2)c(C#N)cc1-n1c(=N)n(C)c2cnc3ccc(-c4ccc(Cl)cc4)cc3c21` [Compound 120, 5-(8-(4-chlorophenyl)-2-imino-3-methyl-2,3-dihydro-1H-imidazo[4,5-c]quinolin-1-yl)-4-methyl-2-((4aS,7aS)-octahydro-6H-pyrrolo[3,4-b]pyridin-6-yl)benzonitrile] stands 1470 nM; under `CC(=O)N1CCC(N2CCC(n3c(=N)n(C)c4cnc5ccc(-c6ccc(Cl)cc6)cc5c43)CC2)CC1` [Compound 127, 1-(4-(8-(4-chlorophenyl)-2-imino-3-methyl-2,3-dihydro-1H-imidazo[4,5-c]quinolin-1-yl)-[1,4′-bipiperidin]-1′-yl)ethan-1-one], 1500 nM; under `CCC(=O)N1CCC(N2CCC(n3c(=N)n(C)c4cnc5ccc(-c6ccc(Cl)cc6)cc5c43)CC2)CC1` [Compound 128, 1-(4-(8-(4-chlorophenyl)-2-imino-3-methyl-2,3-dihydro-1H-imidazo[4,5-c]quinolin-1-yl)-[1,4′-bipiperidin]-1′-yl)propan-1-one], 627 nM.
In the case of `Cc1cc(N2CCC(NS(C)(=O)=O)CC2)c(C#N)cc1-n1c(=N)n(C)c2cnc3ccc(-c4ccc(Cl)cc4)cc3c21` [Compound 131, N-(1-(4-(8-(4-chlorophenyl)-2-imino-3-methyl-2,3-dihydro-H-imidazo[4,5-c]quinolin-1-yl)-2-cyano-5-methylphenyl)piperidin-4-yl)methanesulfonamide], the EC50 in data set [1] (Table 1) came out at 16.3 nM.
On the same count and under the same terms, under `Cc1cc(N2CCNC(=O)C2)c(C#N)cc1-n1c(=N)n(C)c2cnc3ccc(-c4ccc(Cl)cc4)cc3c21` [Compound 133, 5-(8-(4-chlorophenyl)-2-imino-3-methyl-2,3-dihydro-1H-imidazo[4,5-c]quinolin-1-yl)-4-methyl-2-(3-oxopiperazin-1-yl)benzonitrile] stands 6.26 nM.
Same read-out and setting: the same measure for `Cc1cc(F)c(C#N)cc1-n1c(=N)n(C)c2cnc3ccc(-c4ccc(Cl)cc4)cc3c21` [Compound 134, 5-(8-(4-chlorophenyl)-2-imino-3-methyl-2,3-dihydro-1H-imidazo[4,5-c]quinolin-1-yl)-2-fluoro-4-methylbenzonitrile]: 74.3 nM; for `COC(=O)/N=c1\n(C)c2cnc3ccc(-c4cccc(F)c4)cc3c2n1-c1cc(C#N)c(N2CCOCC2)cc1C` [Compound 148, Methyl (E)-(1-(5-cyano-2-methyl-4-morpholinophenyl)-8-(3-fluorophenyl)-3-methyl-1,3-dihydro-2H-imidazo[4,5-c]quinolin-2-ylidene)carbamate]: 236 nM.

(Values after patent US20210188843A1, “QUINOLINE COMPOUNDS AND THEIR PREPARATION AND USE AS ANTIMALARIAL AGENTS” (The United States of America,as represented by the …, priority 2018, published 2021).)
